This passage reports T/C results from PubChem BioAssay AID192 (DTP/NCI, 2004).

Where “and” joins values, the source holds several entries; their conditions need not be identical. Equal values may be shown once. Toxic doses and inconclusive results are not listed.

This experiment concerns BDF1 mice, B16 melanoma ip, median survival T/C. Put plainly: NCI In Vivo Anticancer Drug Screen. Data for tumor model B16 Melanoma (intraperitoneal) in B6D2F1 (BDF1) mice. To be noted: endpoint: median survival time, higher = longer survival. A digest of the protocol: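 Tumor-bearing mice received test compound or vehicle. Survival or tumor size was then measured in both groups. The treated-group figure was divided by the control-group figure.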

Where [1] appears, read: dose: 6.25 mg/kg/injection, schedule: Q01DX009 (ip), vehicle: saline with Tween-80.
Setting [2] is: dose: 8.0 mg/kg/injection, schedule: Q01DX009 (ip), vehicle: saline with Tween-80.
Setting [3] is: dose: 12.5 mg/kg/injection, schedule: Q01DX009 (ip), vehicle: saline with Tween-80.
Where [4] appears, read: dose: 100.0 mg/kg/injection, schedule: Q01DX009 (ip), vehicle: Klucel (hydroxypropylcellulose) (HPC).
[5] abbreviates: dose: 200.0 mg/kg/injection, schedule: Q01DX009 (ip), vehicle: Klucel (hydroxypropylcellulose) (HPC).
Where [6] appears, read: dose: 400.0 mg/kg/injection, schedule: Q01DX009 (ip), vehicle: Klucel (hydroxypropylcellulose) (HPC).
The mark [7] stands for this setting: dose: 50.0 mg/kg/injection, schedule: Q01DX009 (ip), vehicle: Klucel (hydroxypropylcellulose) (HPC).
Where [8] appears, read: dose: 25.0 mg/kg/injection, schedule: Q01DX009 (ip), vehicle: Klucel (hydroxypropylcellulose) (HPC).

For the compound `COc1cc(NS(C)(=O)=O)ccc1Nc1c2ccc(Cl)cc2nc2c(OC)cccc12`, the T/C is, setting by setting: (dose: 0.38 mg/kg/injection, schedule: Q01DX009 (ip), vehicle: saline with Tween-80) 123 % of control; (dose: 0.75 mg/kg/injection, schedule: Q01DX009 (ip), vehicle: saline with Tween-80) 110 % of control; (dose: 0.8 mg/kg/injection, schedule: Q01DX005 (iv), vehicle: water) 96 % of control; (dose: 0.8 mg/kg/injection, schedule: Q04DX003 (iv), vehicle: water) 100 % of control; (dose: 1.6 mg/kg/injection, schedule: Q01DX005 (iv), vehicle: water) 104 % of control; (dose: 1.6 mg/kg/injection, schedule: Q04DX003 (iv), vehicle: water) 92 % of control. For the same compound, the T/C was 156 % of control (dose: 2.3 mg/kg/injection, schedule: Q01DX009 (ip), vehicle: other); 152 % of control (dose: 3.0 mg/kg/injection, schedule: Q01DX009 (ip), vehicle: saline with Tween-80); 178 % of control (dose: 3.13 mg/kg/injection, schedule: Q01DX009 (ip), vehicle: saline with Tween-80); 106 % of control (dose: 3.3 mg/kg/injection, schedule: Q01DX005 (iv), vehicle: water); 96 % of control (dose: 3.3 mg/kg/injection, schedule: Q04DX003 (iv), vehicle: water); 184 % of control (dose: 4.5 mg/kg/injection, schedule: Q01DX009 (ip), vehicle: other). Also, the T/C under setting [1] was 194 % of control; the T/C (dose: 6.5 mg/kg/injection, schedule: Q01DX005 (iv), vehicle: water) is 109 % of control; the T/C (dose: 6.5 mg/kg/injection, schedule: Q04DX003 (iv), vehicle: water) was 105 % of control; the T/C under setting [2] is 178 % of control and 185 % of control; the T/C (dose: 9.0 mg/kg/injection, schedule: Q01DX009 (ip), vehicle: other) is 241 % of control; the T/C (dose: 9.0 mg/kg/injection, schedule: Q04DX003 (ip), vehicle: water) was 152 % of control. The T/C (dose: 12.0 mg/kg/injection, schedule: Q01DX009 (ip), vehicle: saline with Tween-80) is 190 % of control and 219 % of control; the T/C under setting [3] is 236 % of control; the T/C (dose: 13.0 mg/kg/injection, schedule: Q04DX003 (iv), vehicle: water) was 111 % of control; the T/C (dose: 18.0 mg/kg/injection, schedule: Q01DX009 (ip), vehicle: saline with Tween-80) is 196 % of control; the T/C (dose: 18.0 mg/kg/injection, schedule: Q04DX003 (ip), vehicle: water) is 172 % of control; the T/C (dose: 36.0 mg/kg/injection, schedule: Q04DX003 (ip), vehicle: water) is 200 % of control.

On to `CCCCCCCCCCCCCCCCCCNC(=S)N/N=C/c1ccc(Cl)cc1Cl`, for which the T/C by setting is: (dose: 100.0 mg/kg/injection, schedule: Q01DX009 (ip), vehicle: saline) 87 % of control; (dose: 200.0 mg/kg/injection, schedule: Q01DX009 (ip), vehicle: saline) 95 % of control.

As to `Nc1nc([Se])c2ncn(C3OC(CO)C(O)C3O)c2n1` (centres undefined), the T/C reads like this: (dose: 1.0 mg/kg/injection, schedule: Q01DX009 (ip), vehicle: saline) 114 % of control; (dose: 2.0 mg/kg/injection, schedule: Q01DX009 (ip), vehicle: saline) 116 % of control and 117 % of control; (dose: 4.0 mg/kg/injection, schedule: Q01DX009 (ip), vehicle: saline) 114 % of control; (dose: 8.0 mg/kg/injection, schedule: Q01DX009 (ip), vehicle: saline) 116 % of control and 117 % of control; (dose: 16.0 mg/kg/injection, schedule: Q01DX009 (ip), vehicle: saline) 121 % of control.

Take `CC(O)C1(O)C(O)CC(OC2c3cc4c(c(O)c3[C@@H]3C[C@@]2(C)OC32C=c3cc[nH]c3=N2)C(=O)c2cccc(O)c2C4=O)OC1C` (some centres undefined): the T/C is 97 % of control (dose: 0.5 mg/kg/injection, schedule: Q01DX009 (ip), vehicle: saline with Tween-80); 112 % of control (dose: 1.0 mg/kg/injection, schedule: Q01DX009 (ip), vehicle: saline with Tween-80); 109 % of control (dose: 2.0 mg/kg/injection, schedule: Q01DX009 (ip), vehicle: saline with Tween-80); 117 % of control (dose: 4.0 mg/kg/injection, schedule: Q01DX009 (ip), vehicle: saline with Tween-80); 115 % of control under setting [2]; 124 % of control (dose: 16.0 mg/kg/injection, schedule: Q01DX009 (ip), vehicle: saline with Tween-80).

In the case of `N#CC(CC(=O)c1ccc2c(c1)OCO2)c1ccc2c(c1)OCO2` (centres undefined), the T/C runs as follows: under setting [4], 105 % of control; under setting [5], 101 % of control; under setting [6], 94 % of control.

For the compound `CCCCCCCCP(=O)(N1CC1C)N1CC1C` (centres undefined), the T/C is, setting by setting: (dose: 3.12 mg/kg/injection, schedule: Q01DX009 (ip), vehicle: saline) 101 % of control; (dose: 6.25 mg/kg/injection, schedule: Q01DX009 (ip), vehicle: saline) 102 % of control; (dose: 12.5 mg/kg/injection, schedule: Q01DX009 (ip), vehicle: saline) 97 % of control; (dose: 25.0 mg/kg/injection, schedule: Q01DX009 (ip), vehicle: saline) 102 % of control.

`C1CC[N-]CC1.C1CC[N-]CC1.C1CC[N-]CC1.C1CC[N-]CC1.[Cl][Co][Cl]`: the T/C was 103 % of control (dose: 37.5 mg/kg/injection, schedule: Q01DX009 (ip), vehicle: saline with Tween-80) and 87 % of control (dose: 75.0 mg/kg/injection, schedule: Q01DX009 (ip), vehicle: saline with Tween-80).

For `O=C1NC(c2ccccc2Cl)Nc2ccccc21` (centres undefined), the T/C under setting [7] was 103 % of control, the T/C under setting [4] was 98 % of control, the T/C under setting [5] is 98 % of control and the T/C under setting [6] is 108 % of control.

Take `CC(C)=CCN1CCC2(C)c3cc(O)ccc3CC1C2C` (centres undefined): the T/C is, setting by setting: (dose: 0.39 mg/kg/injection, schedule: Q01DX009 (ip), vehicle: Klucel (hydroxypropylcellulose) (HPC)) 123 % of control; (dose: 0.78 mg/kg/injection, schedule: Q01DX009 (ip), vehicle: Klucel (hydroxypropylcellulose) (HPC)) 102 % of control; (dose: 1.56 mg/kg/injection, schedule: Q01DX009 (ip), vehicle: Klucel (hydroxypropylcellulose) (HPC)) 123 % of control; (dose: 6.25 mg/kg/injection, schedule: Q01DX009 (ip), vehicle: Klucel (hydroxypropylcellulose) (HPC)) 105 % of control.

As to `CCCCN(CC)C(=S)S[Te](SC(=S)N(CC)CCCC)(SC(=S)N(CC)CCCC)SC(=S)N(CC)CCCC`, the T/C by setting is: under setting [4], 110 % of control; under setting [6], 100 % of control.

As for `C#CCN(C)/N=N/c1nc[nH]c1C(N)=O`, the T/C is, setting by setting: under setting [3], 97 % of control; (dose: 25.0 mg/kg/injection, schedule: Q01DX009 (ip), vehicle: saline with Tween-80) 111 % of control; (dose: 50.0 mg/kg/injection, schedule: Q01DX009 (ip), vehicle: saline with Tween-80) 124 % of control.

As for `CNC(=O)Nc1cccc2c(=O)[nH][nH]c(=O)c12`, the T/C was 112 % of control (dose: 100.0 mg/kg/injection, schedule: Q04DX003 (ip), vehicle: Klucel (hydroxypropylcellulose) (HPC)); 102 % of control (dose: 200.0 mg/kg/injection, schedule: Q04DX003 (ip), vehicle: Klucel (hydroxypropylcellulose) (HPC)); 91 % of control (dose: 400.0 mg/kg/injection, schedule: Q04DX003 (ip), vehicle: Klucel (hydroxypropylcellulose) (HPC)).

As to `CC(=O)CC(=O)Nc1ccc2ccccc2c1`, the T/C reads like this: under setting [8], 93 % of control; under setting [7], 90 % of control; under setting [4], 93 % of control.

Consider `O=C(O)c1ccccc1C(=O)OC1CC2C=CC1C21CC1` (centres undefined), for which the T/C by setting is: (dose: 12.5 mg/kg/injection, schedule: Q01DX009 (ip), vehicle: Klucel (hydroxypropylcellulose) (HPC)) 96 % of control; under setting [8], 96 % of control; under setting [7], 93 % of control.

`CC(=O)C(=O)C1=C2CCCN2CCc2cc3c(cc21)OCO3`: the T/C by setting is: (dose: 12.5 mg/kg/injection, schedule: Q01DX009 (ip), vehicle: water) 93 % of control; (dose: 25.0 mg/kg/injection, schedule: Q01DX009 (ip), vehicle: water) 98 % of control; (dose: 50.0 mg/kg/injection, schedule: Q01DX009 (ip), vehicle: water) 117 % of control; (dose: 100.0 mg/kg/injection, schedule: Q01DX009 (ip), vehicle: water) 89 % of control.

Turning to `O=[N+]([O-])c1ccc(/C=N/c2ncc(Br)s2)o1`, the T/C reads like this: under setting [1], 95 % of control; under setting [3], 93 % of control.

Turning to `NC(CSCc1ccccc1)C(=O)O` (centres undefined), the T/C is, setting by setting: under setting [8], 98 % of control; under setting [7], 106 % of control; under setting [4], 102 % of control; under setting [5], 98 % of control; under setting [6], 117 % of control.
